As a reminder, the melting point is the temperature, or range, at which the solid turns liquid. In turn, `Cc1cccc(-c2[nH]c(C(C)C)nc2-c2cccc(-c3ccccn3)c2)n1` [Example 43, 2-[2-Isopropyl-4-(3-pyridin-2-ylphenyl)-1H-imidazol-5-yl]-6-methylpyridine] displayed a melting point of 97 to 100 °C.

Take `Cc1cccc(-c2[nH]c(C(C)C)nc2-c2cccc(-c3ccc(C(=O)NC4CCOCC4)cc3)c2)n1` [Example 44, N-(Tetrahydropyran-4-yl)-4-{3-[2-isopropyl-5-(6-methylpyridin-2-yl)-1H-imidazol-4-yl]-phenyl}benzamide]: the melting point is 140 °C.

With `Cc1cccc(-c2[nH]c(CC(C)C)nc2-c2cccc(-c3ccc(C(=O)NC4CCOCC4)cc3)c2)n1` [Example 45, N-(Tetrahydropyran-4-yl)-4-{3-[2-isobutyl-5-(6-methylpyridin-2-yl)-1H-imidazol-4-yl]phenyl}benzamide], the melting point fell in the range of 126 to 129 °C.

For `Cc1cccc(-c2[nH]c(C3CC3)nc2-c2cccc(-c3ccc(C(=O)NC4CCOCC4)cc3)c2)n1` [Example 46, N-(Tetrahydropyran-4-yl)-4-{3-[2-cyclopropyl-5-(6-methylpyridin-2-yl)-1H-imidazol-4-yl]phenyl}benzamide], the melting point fell in the range of 127 to 128 °C.

As to `Cc1cccc(-c2[nH]c(C(C)C)nc2-c2cccc(-c3ccc(C(=O)NN4CCOCC4)cc3)c2)n1` [Example 51, N-(Morpholin-4-yl)-4-{3-[2-isopropyl-5-(6-methylpyridin-2-yl)-1H-imidazol-4-yl]-phenyl}benzamide], the melting point worked out at 145 °C.

In turn, `Cc1cccc(-c2nc(C(C)C)[nH]c2-c2cccc(-c3ccc(C(=O)N4CC[S+]([O-])CC4)cc3)c2)n1` [Example 56, 4-({3′-[2-Isopropyl-4-(6-methylpyridin-2-yl)-1H-imidazol-5-yl]-1,1′-biphenyl-4-yl}carbonyl)thiomorpholine 1-oxide] had a melting point of 136 to 140 °C.

For the molecule `Cc1cccc(-c2nc(C(C)C)[nH]c2-c2cccc(-c3ccc(C(=O)N4CCS(=O)(=O)CC4)cc3)c2)n1` [Example 57, 4-({3′-[2-Isopropyl-4-(6-methylpyridin-2-yl)-1H-imidazol-5-yl]-1,1′-biphenyl-4-yl}carbonyl)thiomorpholine 1,1-dioxide], the melting point was in the range of 141 to 145 °C.

Consider `Cc1cccc(-c2[nH]c(C(C)C)nc2-c2ccc(F)c(-c3ccc(S(C)(=O)=O)cc3)c2)n1` [Example 61, 2-{4-[6-Fluoro-4′-(methylsulfonyl)-1,1′-biphenyl-3-yl]-2-isopropyl-1H-imidazol-5-yl}-6-methylpyridine], for which the melting point was in the range of 113 to 115 °C.

In turn, `Cc1cccc(-c2nc(N)sc2-c2cccc(-c3ccc(S(C)(=O)=O)cc3)c2)n1` [Example 62, 4-(6-Methylpyridin-2-yl)-5-[4′-(methylsulfonyl)-1,1′-biphenyl-3-yl]-1,3-thiazol-2-amine] displayed a melting point of 107 to 109 °C.

`CCc1cccc(-c2[nH]c(C(C)C)nc2-c2cccc(-c3ccc(S(C)(=O)=O)cc3)c2)n1` [Example 64, 2-Ethyl-6-{2-isopropyl-4-[4′-(methylsulfonyl)-1,1′-biphenyl-3-yl]-1H-imidazol-5-yl}pyridine] displayed a melting point of 108 to 110 °C.

As for `Cc1cccc(-c2[nH]c(C(C)C)nc2-c2ccc(F)c(-c3ccc(C(=O)NN4CCOCC4)cc3)c2)n1` [Example 66, N-(Morpholin-4-yl)-4-{2-fluoro-5-[2-isopropyl-5-(6-methylpyridin-2-yl)-1H-imidazol-4-yl]phenyl}benzamide], the melting point fell in the range of 153 to 155 °C.

The molecule `Cc1cccc(-c2[nH]c(C(C)C)nc2-c2cccc(-c3ccc(NC(=O)NN4CCOCC4)cc3)c2)n1` [Example 67, N-{3′-[2-Isopropyl-5-(6-methylpyridin-2-yl)-1H-imidazol-4-yl]-1,1′-biphenyl-4-yl}-N′-morpholin-4-ylurea] gave a melting point of 146 to 148 °C.

On to `Cc1cccc(-c2[nH]c(C(C)C)nc2-c2cccc(-c3ccc(C)[nH]3)c2)n1` [Example 69, 2-{2-Isopropyl-4-[3-(5-methyl-1H-pyrrol-2-yl)phenyl]-1H-imidazol-5-yl}-6-methylpyridine], for which the melting point was in the range of 128 to 130 °C.

For `Cc1cccc(-c2nc(C(C)C)[nH]c2-c2cccc(-c3cnn(C)c3)c2)n1` [Example 70, 2-{2-Isopropyl-5-[3-(1-methyl-1H-pyrazol-4-yl)phenyl]-1H-imidazol-4-yl}-6-methylpyridine], the melting point was 84 to 86 °C.

As for `Cc1cccc(-c2[nH]c(C(C)C)nc2-c2cccc(-c3ccc(NS(C)(=O)=O)cc3F)c2)n1` [Example 73, N-{2-Fluoro-3′-[2-isopropyl-5-(6-methylpyridin-2-yl)-1H-imidazol-4-yl]-1,1′-biphenyl-4-yl}methanesulfonamide], the melting point lay within 179 to 184 °C.

The molecule `Cc1cccc(-c2[nH]c(C(C)C)nc2-c2cccc(-c3ccc(NS(=O)(=O)C4CC4)cc3F)c2)n1` [Example 74, N-{2-Fluoro-3′-[2-isopropyl-5-(6-methylpyridin-2-yl)-1H-imidazol-4-yl]-1,1′-biphenyl-4-yl}cyclopropanesulfonamide] gave a melting point of 124 to 128 °C.

The molecule `Cc1cccc(-c2[nH]c(C(C)C)nc2-c2cccc(-c3ccc(S(N)(=O)=O)cc3F)c2)n1` [Example 75, 2-Fluoro-3′-[2-isopropyl-5-(6-methylpyridin-2-yl)-1H-imidazol-4-yl]-1,1′-biphenyl-4-sulfonamide] registered a melting point of 246 to 248 °C.

`Cc1cccc(-c2[nH]c(C(C)C)nc2-c2cccc(-c3ccc(N)cn3)c2)n1` [Example 76, 6-{3-[2-Isopropyl-5-(6-methylpyridin-2-yl)-1H-imidazol-4-yl]phenyl}pyridine-3-amine]: the melting point was in the range of 119 to 124 °C.

In turn, `Cc1cccc(-c2[nH]c(C(C)C)nc2-c2cccc(-c3cc[nH]c3)c2)n1` [Example 78, 2-{2-Isopropyl-4-[3-(1H-pyrrol-3-yl)phenyl]-1H-imidazol-5-yl}-6-methylpyridine] came in with a melting point of 112 to 114 °C.

`Cc1cccc(-c2[nH]c(C(C)C)nc2-c2cccc(-c3ccc4c(c3)C(=O)CC[S+]4[O-])c2)n1` (centres unmarked) [Example 80, 6-{3-[2-Isopropyl-5-(6-methylpyridin-2-yl)-1H-imidazol-4-yl]phenyl}-2,3-dihydro-4H-thiochromen-4-one 1-oxide] displayed a melting point of 145 to 148 °C.

`Cc1cccc(-c2[nH]c(C(C)C)nc2-c2cccc(-c3ccc4c(c3)C(=O)CCS4(=O)=O)c2)n1` [Example 81, 6-{3-[2-Isopropyl-5-(6-methylpyridin-2-yl)-1H-imidazol-4-yl]phenyl}-2,3-dihydro-4H-thiochromen-4-one 1,1-dioxide]: the melting point lay within 115 to 119 °C.

Molecule `Cc1cccc(-c2[nH]c(C(C)C)nc2-c2cccc(-c3ccc4c(c3)CCCS4)c2)n1` [Example 82, 2-{4-[3-(3,4-Dihydro-2H-thiochromen-6-yl)phenyl]-2-isopropyl-1H-imidazol-5-yl}-6-methylpyridine] returned a melting point of 115 to 117 °C.

In turn, `Cc1cccc(-c2[nH]c(C(C)C)nc2-c2cccc(-c3ccc4c(c3)CCC[S+]4[O-])c2)n1` (centres unmarked) [Example 83, 2-{2-Isopropyl-4-[3-(1-oxido-3,4-dihydro-2H-thiochromen-6-yl)phenyl]-1H-imidazol-5-yl}-6-methylpyridine] registered a melting point of 136 to 139 °C.

Molecule `Cc1cccc(-c2[nH]c(C(C)C)nc2-c2cccc(-c3ccc4c(c3)C=CS4(=O)=O)c2)n1` [Example 85, 2-{4-[3-(1,1-Dioxido-1-benzothien-5-yl)phenyl]-2-isopropyl-1H-imidazol-5-yl}-6-methylpyridine] came in with a melting point of 137 to 138 °C.

`Cc1cccc(-c2[nH]c(C(C)C)nc2-c2cccc(-c3ccc4c(c3)CCS4(=O)=O)c2)n1` [Example 86, 2-{4-[3-(1,1-Dioxido-2,3-dihydro-1-benzothien-5-yl)phenyl]-2-isopropyl-1H-imidazol-5-yl}-6-methylpyridine] yielded a melting point of 128 to 131 °C.

Regarding `Cc1cccc(-c2[nH]c(C(C)C)nc2-c2cccc(-c3ccc(NS(=O)(=O)C4CC4)cn3)c2)n1` [Example 87, N-(6-{3-[2-Isopropyl-5-(6-methylpyridin-2-yl)-1H-imidazol-4-yl]phenyl}pyridin-3-yl)cyclopropanesulfonamide], the melting point lay within 133 to 136 °C.

`Cc1cccc(-c2[nH]c(C(C)C)nc2-c2cccc(-c3ccc(S(C)(=O)=O)cn3)c2)n1` [Example 88, 2-{3-[2-Isopropyl-5-(6-methylpyridin-2-yl)-1H-imidazol-4-yl]phenyl}-5-(methylsulfonyl)pyridine] yielded a melting point of 112 to 114 °C.

Consider `Cc1cccc(-c2[nH]c(C(C)C)nc2-c2cccc(-n3ccnc3)c2)n1` [Example 90, 2-{4-[3-(1H-Imidazol-1-yl)phenyl]-2-isopropyl-1H-imidazol-5-yl}-6-methylpyridine], for which the melting point lay in the range of 158 to 161 °C.

In turn, `Cc1cccc(-c2[nH]c(C(C)C)nc2-c2ccc(F)c(-c3ccc(NC(=O)NN4CCN(C)CC4)cc3)c2)n1` [Example 92, N-{2′-Fluoro-5′-[2-isopropyl-5-(6-methylpyridin-2-yl)-1H-imidazol-4-yl]-1,1′-biphenyl-4-yl}-N′-(4-methylpiperazin-1-yl)urea] yielded a melting point of 145 °C.

The molecule `Cc1cccc(-c2[nH]c(C(C)C)nc2-c2ccc(F)c(-c3ccc[nH]3)c2)n1` [Example 93, 2-{4-[4-Fluoro-3-(1H-pyrrol-2-yl)phenyl]-2-isopropyl-1H-imidazol-5-yl}-6-methylpyridine] displayed a melting point of 103 to 106 °C.

As to `Cc1cccc(-c2[nH]c(C(C)C)nc2-c2ccc(F)c(-c3ccc(NC(=O)NC4CCN(C)CC4)cc3)c2)n1` [Example 95, N-{2′-Fluoro-5′-[2-isopropyl-5-(6-methylpyridin-2-yl)-1H-imidazol-4-yl]-1,1′-biphenyl-4-yl}-N′-(1-methylpiperidin-4-yl)urea], the melting point was 145 °C.

The molecule `Cc1cccc(-c2[nH]c(C(C)C)nc2-c2ccc(F)c(-c3ccc(N4CCOCC4)cc3)c2)n1` [Example 100, 4-{2′-Fluoro-5′-[2-isopropyl-5-(6-methylpyridin-2-yl)-1H-imidazol-4-yl]-1,1′-biphenyl-4-yl}morpholine] returned a melting point of 109 to 111 °C.

The record behind these values is patent publication US20070275968A1, “Substituted Biphenyl Derivative” (priority 2004, published 2007).
